Series [1] has as its system CD8 cells isolated from p14 transgenic mice. Put plainly: CD8 CTV-labelled proliferation assay. It counts as cell-based, mouse. The settings on record: activated for 72 hours; relative to RAP35 and rapamycin. As to the method:
The five analogs and rapamycin were assayed for their effect on proliferation and correlation to p70S6K inhibitory activity. […] The proliferation was measured by FACS. The five analogs were tested at varying concentrations (10 nM, 100 nM, and 100 μM), activated for 72 hours with rapamycin and DMSO treated controls.
CD8 cells were isolated from p14 transgenic mice, then labelled with CTV. The labelled cells then were activated with plate-bound anti-CD3 (5 μg/mL) and soluble anti-CD28 (2 μg/mL), along with rapamycin, rapamycin analog, or DMSO. After activation of 48 hours and 72 hours, the cells were collected to assay the CVT labelling signal using flow cytometry. All rapamycin analogs decrease proliferation in CD8 cells, with varying potency (FIG. 12).

The test system of series [2] is naïve CD4+ mouse T-cells. Put plainly: FACS for expansion of CD62L+ memory T-cells. It counts as cell-based. How it is done:
RAP23 was further evaluated by treating naïve CD4+ T-cells at multiple concentrations (1 nM to 1 uM) for expansion of CD62L+ memory T-cells. […] These 5 compounds were identified to have reduced immunosuppression (with improved safety) with maximum and durable expansion of memory T-cells.

Series [3] relates to mTOR. Put plainly: Phospho-flow (FACS) of phospho-p70S6K / p-S6 in activated mouse T-cells. It counts as cell-based. As to the method:
Whole splenocyte from OT1 B6 mice was extracted. […] Cells were activated with compounds for 30 mins, 1 hour, 2 hours, and overnight. For each time point, p-S6, a downstream of mTORC1 pathway, was gated on low and high based on the DMSO and no stimulation control.

Series [4] deals with naïve CD4+ mouse T cells. Description: FACS of stimulated naïve CD4+ mouse T-cells for CD4+CD25+FOXP3+. Conditions: 1 uM.
The test system of series [5] is conventional T cells. Put plainly: Treg assays for RAP35: culture of conventional T cells. It counts as cell-based.
Series [6] has as its system Treg cells. Description: Treg assays for RAP35: Treg cells with expander beads. It counts as cell-based. The settings on record: 100 nM.
Series [7] can be described thus: Stability during semi-preparative HPLC. Conditions: 65% acetonitrile with 35% water, 50° C. It counts as physicochemical.
Method: The crude was then dissolved in acetonitrile, and the resulting solution was subjected to semi-preparation using an Agilent Zorbax column (SB-C18, 5 μm, 9.4×250 mm, Agilent Technologies Inc., CA) heated to 50° C. by isocratic elution of 65% acetonitrile with 35% water at a flow rate of 3.5 mL/min. The absorbance at 278 nm wavelength was monitored.
The conditions of series [8]: humans; cited from earlier work.

These results are taken from patent publication US20230104503A1, “SMALL MOLECULE COMPOUNDS” (THE REGENTS OF THE UNIVERSITY OF CALIFORNIA, priority 2021, published 2023).

As to `CO[C@H]1C[C@@H]2CC[C@@H](C)[C@@](O)(O2)C(=O)C(=O)N2CCCC[C@H]2C(=O)O[C@H]([C@H](C)C[C@@H]2CC[C@@H](O)[C@H](OC)C2)CC(=O)[C@H](C)/C=C(\C)[C@@H](O)[C@@H](OC)C(=O)[C@H](C)CC/C=C/C=C/C=C/1C` [RAP23, (3S,6R,7E,9R,10R,12R,15E,17E,19E,21S,23S,26R,27R,34aS)-9,27-dihydroxy-3-((R)-1-((1S,3R,4R)-4-hydroxy-3-methoxycyclohexyl)propan-2-yl)-10,21-dimethoxy-6,8,12,20,26-pentamethyl-9,10,12,13,14,21,22,23,24,25,26,27,32,33,34,34a-hexadecahydro-3H-23,27-epoxypyrido[2,1-c][1]oxa[4]azacyclohentriacontine-1,5,11,28,29(4H,6H,31H)-pentaone], in series [1], the “proliferation of CTV-labelled CD8 cells” value is given as “increased proliferation”. The “portion of cells possessing a phospho-p70S6K high/CD62L+high phenotype” value in series [2] (1 nM to 1 uM) is reported as 7-10%. Moreover, the “generation of memory versus inhibition of proliferation” value in series [2] (overall assessment) is reported as “promote potent generation of memory without potently inhibiting proliferation”. In addition, the “phospho-p70S6K low/CD62L+high phenotype” value in series [2] (relative to all doses of rapamycin (including 1 nM)) is “reduced”. In addition, the “inhibition of the p70S6 high signal” value in series [3] (even at 1 uM) is listed as “never fully inhibited”.

For the compound `CO[C@H]1C[C@@H]2CC[C@@H](C)[C@@](O)(O2)C(=O)C(=O)N2CCCC[C@H]2C(=O)O[C@H](CC[C@@H]2CC[C@@H](O)[C@H](OC)C2)CC(=O)[C@H](C)/C=C(\C)[C@@H](O)[C@@H](OC)C(=O)[C@H](C)C[C@H](C)/C=C/C=C/C=C/1C` [RAP35, (3R,6R,7E,9R,10R,12R,14S,15E,17E,19E,21S,23S,26R,27R,34aS)-9,27-dihydroxy-3-(2-((1S,3R,4R)-4-hydroxy-3-methoxycyclohexyl)ethyl)-10,21-dimethoxy-6,8,12,14,20,26-hexamethyl-9,10,12,13,14,21,22,23,24,25,26,27,32,33,34,34a-hexadecahydro-3H-23,27-epoxypyrido[2,1-c][1]oxa[4]azacyclohentriacontine-1,5,11,28,29(4H,6H,31H)-pentaone], in series [4], the “FOXP3+ count” value was found to be 45.8. Moreover, the p70S6 high cells result in series [3] (following overnight stimulation, therapeutic concentrations (1-200 nM)) is listed as “significantly reduced”. Besides, the “anti-inflammatory effects (Cell Proliferation Dye and phenotypic markers)” value in series [5] (100 nM) is “promising anti-inflammatory effects”. In series [5] (100 nM, conventional T cells), the CCR7 expression entry is “increased” and the CD45RO expression entry is “decreased”. Further, the “mitochondrial membrane potential (MitoProbe)” value in series [5] (compared to stimulated CD3 T cells) is recorded as “reduced”. In addition, the “frequency of Treg cells” value in series [6] is “reduce”. Moreover, in series [6] (Treg cells), the “expression of CCR7” value is reported as “reduce”, the “expression of CD45RO” value is “reduce”, the “expression of CXCR3” value was “reduce” and the “phosphorylation of 4EBP1” value is on record as “reduce”. Besides, the “phosphorylation of S6” value in series [6] (Treg cells) is “reduce”.

With `CO[C@H]1C[C@@H]2CC[C@@H](C)[C@@](O)(O2)C(=O)C(=O)N2CCCC[C@H]2C(=O)O[C@H](CC[C@@H]2CC[C@@H](O)[C@H](OC)C2)CC(=O)[C@H](C)/C=C(\C)[C@@H](O)CC(=O)[C@H](C)C[C@H](C)/C=C/C=C/C=C/1C` [RAP35/27A, (3R,6R,7E,9S,12R,14S,15E,17E,19E,21S,23S,26R,27R,34aS)-9,27-dihydroxy-3-(2-((1S,3R,4R)-4-hydroxy-3-methoxycyclohexyl)ethyl)-21-methoxy-6,8,12,14,20,26-hexamethyl-9,10,12,13,14,21,22,23,24,25,26,27,32,33,34,34a-hexadecahydro-3H-23,27-epoxypyrido[2,1-c][1]oxa[4]azacyclohentriacontine-1,5,11,28,29(4H,6H,31H)-pentaone], the “stability in the process of semi-preparation” value in series [7] was “tended to be unstable”.

As for `CO[C@H]1C[C@@H]2CC[C@@H](C)[C@@](O)(O2)C(=O)C(=O)N2CCCC[C@H]2C(=O)O[C@H]([C@H](C)C[C@@H]2CC[C@@H](O)[C@H](OC)C2)CC(=O)[C@H](C)/C=C(\C)[C@@H](O)[C@@H](OC)C(=O)[C@H](C)C[C@H](C)/C=C/C=C/C=C/1C` [rapamycin, reference compound], the “FOXP3+ count” value in series [4] is reported as 53.3. Moreover, the terminal half-life in series [8] was 24 to 48 h.
